Results published in paper PMC6440567 (Clinical and Translational Science, 2018).

How the values were obtained:
OAT3 = conditions: in vitro; cited from earlier work
[1] = tested on: ceftazidime‐resistant Enterobacteriaceae; conditions: cited from earlier work
[2] = tested on: organic anion transporter 1 (OAT1); conditions: in vitro; cited from earlier work
[3] = taken to be; ref not given; cited from earlier work
[4] = tested on: ceftazidime‐resistant P. aeruginosa; conditions: thigh and lung infection; cited from earlier work
[5] = Final avibactam PopPK model; format: in vivo, human; conditions: for clearance: human, plasma, intravenous
[6] = Individual predicted steady‐state exposures; format: in vivo, human; conditions: for AUC / Cmax: human, plasma; for AUC: AUCss,0–24 geometric mean (CV)
[7] = non‐Chinese, non‐Japanese Asians vs other racial origins

Structure (SMILES): NC(=O)[C@@H]1CC[C@@H]2CN1C(=O)N2OS(=O)(=O)O [Avibactam, avibactam]
- transporter substrate (OAT3): substrate
- C T that restored the activity of ceftazidime ([1]; avibactam concentration fixed, varying concentrations of ceftazidime): ≤ 0.5 mg/L
- C T sufficient to restore ceftazidime activity ([1]; fixed concentrations of ceftazidime, varying concentrations of avibactam): 0.15 to 0.28 mg/L
- transporter substrate [2]: substrate
- free plasma concentrations as % of total plasma concentrations [3]: 92%
- %fT > 1 mg/L associated with 2log10 reductions in bacterial density [4]: 20–55%
- %fT > 1 mg/L associated with stasis [4]: 16–24%
- lower V c ([5]; 10th percentile of body weight (51 kg) vs median weight (70 kg)): 29%
- higher V c ([5]; 90th percentile of body weight (95 kg) vs median weight (70 kg)): 39%
- decrease in CL ([5]; APACHE II score > 10): 19.7%
- increase in CL for an increase of 100 mL/min in CrCL over 80 mL/min ([5]; CrCL ≥ 80 mL/min): 27.9%
- clearance ([5]; CL, patients with ESRD, off dialysis): 1.13 mL/min
- clearance ([5]; CL, patients with ESRD, on‐dialysis): 347 mL/min
- clearance ([5]; θ1: CL, typical value): 170 mL/min
- clearance ([5]; θ6: CL estimate for patients on dialysis): 347 mL/min
- θ9: Population effect on V c (cIAI, phase II), V c*(1 + θ9) ([5]; in vivo): 1.92
- θ11: Population effect on V c (cUTI), V c*(1 + θ11) ([5]; in vivo): 0.434
- θ12: Population effect on V c (cIAI, phase III, NP), V c*(1 + θ11) ([5]; in vivo): 0.329
- θ14: WT on V c (WT/70.0)^θ14 ([5]; in vivo): 1.08
- θ 28: NPv on V c,V c*(1 + θ28) ([5]; in vivo): 0.175
- increase in AUC [5, 7]: 9.5%
- lower CL [5, 7]: 8.65%
- higher V c ([5]; patients with NPv vs non‐NPv patients): 17.5%
- higher V c ([5]; patients with cUTI vs healthy subjects): 43.4%
- higher V c ([5]; phase III patients with cIAI and patients with NP vs healthy subjects): 32.9%
- θ2: V c ([5]; typical value): 11.1 L
- θ3: Q ([5]; typical value): 5.44 L/h
- θ4: V p ([5]; typical value): 6.91 L
- AUC ([6]; Age (years) 18–65): 131 µg·h/mL
- AUC ([6]; Age (years) > 65–75): 156 µg·h/mL
- AUC ([6]; Age (years) > 75–89): 180 µg·h/mL
- AUC ([6]; Asian population: China (only)): 153 µg·h/mL
- AUC ([6]; Asian population: Japan): 164 µg·h/mL
- AUC ([6]; Baseline WBC count Missing): 147 µg·h/mL
- AUC ([6]; Concomitant use of OAT1/OAT3 inhibitor(s): No): 142 µg·h/mL
- AUC ([6]; Concomitant use of OAT1/OAT3 inhibitor(s): Yes): 150 µg·h/mL
- AUC ([6]; Fever at baseline: Missing): 132 µg·h/mL
- AUC ([6]; Fever at baseline: No): 146 µg·h/mL
- AUC ([6]; Fever at baseline: Yes): 134 µg·h/mL
- AUC ([6]; Obesity I (29.9 ≤ BMI < 34.9 kg/m^2)): 136 µg·h/mL
- AUC ([6]; Obesity II (34.9 ≤ BMI < 39.9 kg/m^2)): 141 µg·h/mL
- AUC ([6]; Obesity III (BMI ≥ 39.9 kg/m^2)): 115 µg·h/mL
- AUC ([6]; Obesity: Missing): 172 µg·h/mL
- AUC ([6]; Obesity: Normal): 144 µg·h/mL
- AUC ([6]; Race: Asian (non‐Chinese; non‐Japanese)): 166 µg·h/mL
- AUC ([6]; Race: Chinese and Taiwanese): 151 µg·h/mL
- AUC ([6]; Race: Japanese): 164 µg·h/mL
- AUC ([6]; Race: White/other): 135 µg·h/mL
- Cmax ([6]; C max,ss geometric mean (CV), Age (years) 18–65): 12500 ng/mL
- Cmax ([6]; C max,ss geometric mean (CV), Age (years) > 65–75): 13200 ng/mL
- Cmax ([6]; C max,ss geometric mean (CV), Age (years) > 75–89): 14000 ng/mL
- Cmax ([6]; C max,ss geometric mean (CV), Asian population: China (only)): 14900 ng/mL
- Cmax ([6]; C max,ss geometric mean (CV), Asian population: Japan): 16100 ng/mL
- Cmax ([6]; C max,ss geometric mean (CV), Asian population: Korea): 13000 ng/mL
- Cmax ([6]; C max,ss geometric mean (CV), Concomitant use of OAT1/OAT3 inhibitor(s): No): 12800 ng/mL
- Cmax ([6]; C max,ss geometric mean (CV), Concomitant use of OAT1/OAT3 inhibitor(s): Yes): 13700 ng/mL
- Cmax ([6]; C max,ss geometric mean (CV), Fever at baseline: Missing): 11800 ng/mL
- Cmax ([6]; C max,ss geometric mean (CV), Fever at baseline: No): 12900 ng/mL
- Cmax ([6]; C max,ss geometric mean (CV), Fever at baseline: Yes): 12200 ng/mL
- Cmax ([6]; C max,ss geometric mean (CV), Obesity I (29.9 ≤ BMI < 34.9 kg/m^2)): 12000 ng/mL
- Cmax ([6]; C max,ss geometric mean (CV), Obesity II (34.9 ≤ BMI < 39.9 kg/m^2)): 13200 ng/mL
- Cmax ([6]; C max,ss geometric mean (CV), Obesity III (BMI ≥ 39.9 kg/m^2)): 9700 ng/mL
- Cmax ([6]; C max,ss geometric mean (CV), Obesity: Missing): 14200 ng/mL
- Cmax ([6]; C max,ss geometric mean (CV), Obesity: Normal): 13000 ng/mL
- Cmax ([6]; C max,ss geometric mean (CV), Race: Asian (non‐Chinese; non‐Japanese)): 14900 ng/mL
- Cmax ([6]; C max,ss geometric mean (CV), Race: Chinese and Taiwanese): 14700 ng/mL
- Cmax ([6]; C max,ss geometric mean (CV), Race: Japanese): 16100 ng/mL
- Cmax ([6]; C max,ss geometric mean (CV), Race: White/other): 12000 ng/mL
- Cmax ([6]; intravenous): 12700 ng/mL
- AUC ([6]; intravenous, 187.5 mg, Day 3 CrCL 8–15 mL/min (750‐187.5 mg q24 h)): 86.3 µg·h/mL
- Cmax ([6]; intravenous, 187.5 mg, C max,ss geometric mean (CV), Day 3 CrCL 8–15 mL/min (750‐187.5 mg q24 h)): 6300 ng/mL
- AUC ([6]; intravenous, 500 mg, Day 3 CrCL > 150–180 mL/min (2000‐500 mg q8 h)): 103 µg·h/mL
- Cmax ([6]; intravenous, 500 mg, C max,ss geometric mean (CV), Day 3 CrCL > 150–180 mL/min (2000‐500 mg q8 h)): 9900 ng/mL
- AUC ([6]; intravenous, Asian population: Korea): 144 µg·h/mL
- AUC ([6]; intravenous, Asian population: Taiwan): 115 µg·h/mL
- AUC ([6]; intravenous, Asian population: Vietnam): 146 µg·h/mL
- AUC ([6]; intravenous, Bacteremia at baseline: No): 141 µg·h/mL
- AUC ([6]; intravenous, Bacteremia at baseline: Yes): 161 µg·h/mL
- AUC ([6]; intravenous, Baseline APACHE II score > 10): 170 µg·h/mL
- AUC ([6]; intravenous, Baseline APACHE II score Missing): 138 µg·h/mL
- AUC ([6]; intravenous, Baseline APACHE II score ≤ 10): 131 µg·h/mL
- AUC ([6]; intravenous, Baseline WBC count (cells/μL) > 12,000): 136 µg·h/mL
- AUC ([6]; intravenous, Baseline WBC count (cells/μL) ≤ 12,000): 145 µg·h/mL
- AUC ([6]; intravenous, Patient population: NP): 169 µg·h/mL
- AUC ([6]; intravenous, Patient population: Non‐VAP): 183 µg·h/mL
- AUC ([6]; intravenous, Patient population: VAP): 146 µg·h/mL
- AUC ([6]; intravenous, Patient population: cIAI): 132 µg·h/mL
- AUC ([6]; intravenous, Patient population: cUTI): 138 µg·h/mL
- AUC ([6]; intravenous, SIRS at baseline: Missing): 129 µg·h/mL
- AUC ([6]; intravenous, SIRS at baseline: No): 143 µg·h/mL
- AUC ([6]; intravenous, SIRS at baseline: Yes): 142 µg·h/mL
- Cmax ([6]; intravenous, C max,ss geometric mean (CV), Asian population: Taiwan): 10200 ng/mL
- Cmax ([6]; intravenous, C max,ss geometric mean (CV), Asian population: Vietnam): 14600 ng/mL
- Cmax ([6]; intravenous, C max,ss geometric mean (CV), Bacteremia at baseline: No): 12600 ng/mL
- Cmax ([6]; intravenous, C max,ss geometric mean (CV), Bacteremia at baseline: Yes): 14200 ng/mL
- Cmax ([6]; intravenous, C max,ss geometric mean (CV), Baseline APACHE II score > 10): 14300 ng/mL
- Cmax ([6]; intravenous, C max,ss geometric mean (CV), Baseline APACHE II score Missing): 12100 ng/mL
- Cmax ([6]; intravenous, C max,ss geometric mean (CV), Baseline WBC count (cells/μL) > 12,000): 12500 ng/mL
- Cmax ([6]; intravenous, C max,ss geometric mean (CV), Baseline WBC count (cells/μL) ≤ 12,000): 12800 ng/mL
- Cmax ([6]; intravenous, C max,ss geometric mean (CV), Patient population: NP): 14200 ng/mL
- Cmax ([6]; intravenous, C max,ss geometric mean (CV), Patient population: Non‐VAP): 15500 ng/mL
- Cmax ([6]; intravenous, C max,ss geometric mean (CV), Patient population: VAP): 12000 ng/mL
- Cmax ([6]; intravenous, C max,ss geometric mean (CV), Patient population: cIAI): 12800 ng/mL
- Cmax ([6]; intravenous, C max,ss geometric mean (CV), Patient population: cUTI): 12100 ng/mL
- Cmax ([6]; intravenous, C max,ss geometric mean (CV), SIRS at baseline: Missing): 12100 ng/mL
- Cmax ([6]; intravenous, C max,ss geometric mean (CV), SIRS at baseline: No): 12800 ng/mL
- Cmax ([6]; intravenous, C max,ss geometric mean (CV), SIRS at baseline: Yes): 12600 ng/mL
- difference in steady‐state exposure vs. healthy volunteers ([6]; most patient subgroups): ≤ 20%
- lower C max,ss ([6]; patients with VAP vs non‐VAP patients): ~ 20%
